These results are taken from ChEMBL document CHEMBL3351855, “Synthesis and biological evaluation of (-)-6-O-desmethylcryptopleurine and analogs” (Bioorg Med Chem Lett, 2015).

Usually IC50 stands for the concentration that gives 50% inhibition. A high value points to weaker potency in that assay.

Holding throughout (format): functional, cell-based
Assay [1] can be described thus: Antiproliferative activity against human HCT116 cells after 72 hrs by ATPlite assay. The conditions noted are these: HCT-116, 72 h. For orientation: In ATP-based viability assays light output follows the ATP content of the culture.
Assay [2] concerns A-375. The assay is described as follows: Antiproliferative activity against human A375 cells after 72 hrs by ATPlite assay. The conditions noted are these: A-375, 72 h.
Assay [3] is described as follows: Antiproliferative activity against human NAMALWA cells after 72 hrs by ATPlite assay. The settings on record: NAMALVA.
Assay [4] concerns A549. The assay is described as follows: Antiproliferative activity against human A549 cells after 72 hrs by ATPlite assay. The settings on record: A549, 72 h.

As for `COc1cc2c3c(c4ccc(O)cc4c2cc1OC)CN1CCCC[C@@H]1C3`, the IC50 in assay [1] was found to be 1.4 nM; in assay [2], 1.6 nM; in assay [3], 4.1 nM; in assay [4], 2.5 nM.

With `COc1cc2c3c(c4ccc(O)cc4c2cc1OC)CN1CCCC[C@@H]1C3=O`, the IC50 in assay [1] is 21 nM; in assay [2], 56 nM; in assay [3] it was 60 nM; in assay [4] it was 65 nM.

Turning to `COc1cc2c3c(c4ccc(O)cc4c2cc1OC)CN1CCCC[C@@H]1[C@@H]3O`, the IC50 in assay [1] stood at 0.3 nM; in assay [2] it was 0.3 nM; in assay [3] it was 1.1 nM; in assay [4] it was 1.4 nM.

For the compound `COc1cc2c3c(c4ccc(O)cc4c2cc1OC)CN1CCC[C@@H]1C3`, the IC50 in assay [4] is 1 nM.

As to `COc1ccc2c3c(c4cc(OC)c(OC)cc4c2c1)C[C@H]1CCCN1C3` [(-)-ANTOFINE], the IC50 in assay [4] was determined as 10 nM.

With `COc1ccc2c3c(c4cc(OC)c(OC)cc4c2c1)C[C@H]1CCCCN1C3` [CRYPTOPLEURINE], the IC50 in assay [1] came to 0.7 nM; in assay [2] it was 1.2 nM; in assay [3], 2.6 nM.
